According to patent US6914045B2, “Glycopeptide antibiotics” (Wyeth Holdings Corporation, priority 2001, dated 2005):
In brackets after ≈: the same amount, converted by molar mass.

Columns and labels:
Test in all cases: in vitro antibacterial evaluation, MIC by broth dilution
Type in all cases: cell-based
Escherichia coli = details: 18 hours at 35° C.
Enterococcus sp. = details: broth dilution, 18 hours at 35° C.
Summary of the method: (§1)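 Inoculum 5×10^5 CFU/mL; concentrations 64 to 0.06 μg/mL; MIC defined as lowest inhibitory level. Conducted by broth dilution under NCCLS guidelines.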

Staphylococcus sp. = details: broth dilution, 18 hours at 35° C.; for MIC Staphylococcus aureus (GC 1131): strain GC 1131
Summary of the method: as §1

Streptococcus sp. = details: broth dilution, 18 hours at 35° C.
Summary of the method: as §1

MIC Escherichia coli (ATCC 25922) (Escherichia coli): >64 µg/mL
MIC Escherichia coli (GC 4559) (Escherichia coli): >64 µg/mL
MIC Escherichia coli (GC 4560) (Escherichia coli): 16 µg/mL (≈ 11.2 µM)
MIC Enterococcus avium (GC 4558) (Enterococcus sp.): 16 µg/mL (≈ 11.2 µM)
MIC Enterococcus faecalis (ATCC 29212) (Enterococcus sp.): 32 µg/mL (≈ 22.4 µM)
MIC Enterococcus faecalis (GC 2242) (Enterococcus sp.): 32 µg/mL (≈ 22.4 µM)
MIC Enterococcus faecalis (GC 2691) (Enterococcus sp.): 32 µg/mL (≈ 22.4 µM)
MIC Enterococcus faecalis (GC 3059) (Enterococcus sp.): 32 µg/mL (≈ 22.4 µM)
MIC Enterococcus faecalis (GC 4552) (Enterococcus sp.): 32 µg/mL (≈ 22.4 µM)
MIC Enterococcus faecalis (GC 4553) (Enterococcus sp.): 32 µg/mL (≈ 22.4 µM)
MIC Enterococcus faecalis (GC 4554) (Enterococcus sp.): 32 µg/mL (≈ 22.4 µM)
MIC Enterococcus faecalis (GC 6189) (Enterococcus sp.): 32 µg/mL (≈ 22.4 µM)
MIC Enterococcus faecium (GC 2243) (Enterococcus sp.): 32 µg/mL (≈ 22.4 µM)
MIC Enterococcus faecium (GC 4556) (Enterococcus sp.): 32 µg/mL (≈ 22.4 µM)
MIC Enterococcus faecium (GC 4557) (Enterococcus sp.): 8 µg/mL (≈ 5.59 µM)
MIC Enterococcus faecalis (ATCC 29212) (Enterococcus sp.; inoculum 5×10^5 CFU/mL, strain ATCC 29212): 32 µg/mL (≈ 22.4 µM)
MIC Enterococcus faecalis (GC 2242) (Enterococcus sp.; inoculum 5×10^5 CFU/mL, strain GC 2242): 32 µg/mL (≈ 22.4 µM)
MIC Enterococcus faecium (GC 2243) (Enterococcus sp.; inoculum 5×10^5 CFU/mL, strain GC 2243): 32 µg/mL (≈ 22.4 µM)
MIC Enterococcus faecalis (GC 2691) (Enterococcus sp.; inoculum 5×10^5 CFU/mL, strain GC 2691): 32 µg/mL (≈ 22.4 µM)
MIC Enterococcus faecalis (GC 3059) (Enterococcus sp.; inoculum 5×10^5 CFU/mL, strain GC 3059): 32 µg/mL (≈ 22.4 µM)
MIC Enterococcus faecalis (GC 4552) (Enterococcus sp.; inoculum 5×10^5 CFU/mL, strain GC 4552): 32 µg/mL (≈ 22.4 µM)
MIC Enterococcus faecalis (GC 4553) (Enterococcus sp.; inoculum 5×10^5 CFU/mL, strain GC 4553): 32 µg/mL (≈ 22.4 µM)
MIC Enterococcus faecalis (GC 4554) (Enterococcus sp.; inoculum 5×10^5 CFU/mL, strain GC 4554): 32 µg/mL (≈ 22.4 µM)
MIC Enterococcus faecium (GC 4556) (Enterococcus sp.; inoculum 5×10^5 CFU/mL, strain GC 4556): 32 µg/mL (≈ 22.4 µM)
MIC Enterococcus faecium (GC 4557) (Enterococcus sp.; inoculum 5×10^5 CFU/mL, strain GC 4557): 8 µg/mL (≈ 5.59 µM)
MIC Enterococcus avium (GC 4558) (Enterococcus sp.; inoculum 5×10^5 CFU/mL, strain GC 4558): 16 µg/mL (≈ 11.2 µM)
MIC Enterococcus faecalis (GC 6189) (Enterococcus sp.; inoculum 5×10^5 CFU/mL, strain GC 6189): 32 µg/mL (≈ 22.4 µM)
MIC Staphylococcus aureus (GC 1131) (Staphylococcus sp.; inoculum 5×10^5 CFU/mL): 16 µg/mL (≈ 11.2 µM)
MIC Staphylococcus aureus (ATCC 29213) (Staphylococcus sp.; strain ATCC 29213): 16 µg/mL (≈ 11.2 µM)
MIC Staphylococcus aureus (GC 1131) (Staphylococcus sp.): 16 µg/mL (≈ 11.2 µM)
MIC Staphylococcus aureus (GC 3051) (Staphylococcus sp.; strain GC 3051): 16 µg/mL (≈ 11.2 µM)
MIC Staphylococcus aureus (GC 3053) (Staphylococcus sp.; strain GC 3053): 16 µg/mL (≈ 11.2 µM)
MIC Staphylococcus aureus (GC 4541) (Staphylococcus sp.; strain GC 4541): 8 µg/mL (≈ 5.59 µM)
MIC Staphylococcus aureus (GC 4542) (Staphylococcus sp.; strain GC 4542): 4 µg/mL (≈ 2.79 µM)
MIC Staphylococcus aureus-SMITH (GC 4543) (Staphylococcus sp.; strain GC 4543): 4 µg/mL (≈ 2.79 µM)
MIC Staphylococcus aureus (GC 4544) (Staphylococcus sp.; strain GC 4544): 16 µg/mL (≈ 11.2 µM)
MIC Staphylococcus aureus (GC 4545) (Staphylococcus sp.; strain GC 4545): 16 µg/mL (≈ 11.2 µM)
MIC Coagulase Negative Staphylococcus (GC 4547) (Staphylococcus sp.; strain GC 4547): 8 µg/mL (≈ 5.59 µM)
MIC Coagulase Negative Staphylococcus (GC 4548) (Staphylococcus sp.; strain GC 4548): 8 µg/mL (≈ 5.59 µM)
MIC Coagulase Negative Staphylococcus (GC 4549) (Staphylococcus sp.; strain GC 4549): 8 µg/mL (≈ 5.59 µM)
MIC Coagulase Negative Staphylococcus (GC 4551) (Staphylococcus sp.; strain GC 4551): 16 µg/mL (≈ 11.2 µM)
MIC Coagulase Negative Staphylococcus (GC 6257) (Staphylococcus sp.; strain GC 6257): 8 µg/mL (≈ 5.59 µM)
MIC Streptococcus agalactiae (GC 4564) (Streptococcus sp.): 16 µg/mL (≈ 11.2 µM)
MIC Streptococcus pneumoniae (ATCC 6301) (Streptococcus sp.): 8 µg/mL (≈ 5.59 µM)
MIC Streptococcus pneumoniae (GC 1894) (Streptococcus sp.): 4 µg/mL (≈ 2.79 µM)
MIC Streptococcus pneumoniae (GC 4565) (Streptococcus sp.): 8 µg/mL (≈ 5.59 µM)
MIC Streptococcus pyogenes (GC 4563) (Streptococcus sp.): 16 µg/mL (≈ 11.2 µM)
MIC Streptococcus pneumoniae (ATCC 6301) (Streptococcus sp.; inoculum 5×10^5 CFU/mL, strain ATCC 6301): 8 µg/mL (≈ 5.59 µM)
MIC Streptococcus pneumoniae (GC 1894) (Streptococcus sp.; inoculum 5×10^5 CFU/mL, strain GC 1894): 4 µg/mL (≈ 2.79 µM)
MIC Streptococcus pyogenes (GC 4563) (Streptococcus sp.; inoculum 5×10^5 CFU/mL, strain GC 4563): 16 µg/mL (≈ 11.2 µM)
MIC Streptococcus agalactiae (GC 4564) (Streptococcus sp.; inoculum 5×10^5 CFU/mL, strain GC 4564): 16 µg/mL (≈ 11.2 µM)
MIC Streptococcus pneumoniae (GC 4565) (Streptococcus sp.; inoculum 5×10^5 CFU/mL, strain GC 4565): 8 µg/mL (≈ 5.59 µM)
SMILES: COc1ccc2cc(C3OCC4OC(OC5C(CO)OC(Oc6ccc(CC7NC(=O)C(C(C)c8ccccc8)NC(=O)CNC(=O)C(CO)NC(=O)C(CC8CNC(=N)N8C8OC(CO)C(O)C(O)C8O)NC(=O)C(CC8CNC(=N)N8)NC7=O)cc6)C(O)C5O)C(O)C(O)C4O3)ccc2c1 (centres unmarked) [Example 190]
MIC Staphylococcus haemolyticus (GC 4546) (Staphylococcus sp.; strain GC 4546): 8 µg/mL (≈ 5.59 µM)
